Assay results reported in ChEMBL document CHEMBL3886265, “Imidazole amines as modulators of kinase activity” (2015).

Columns and labels:
[1] = target: RAC-alpha serine/threonine-protein kinase (Homo sapiens, UniProt P31749); assay: AKT Enzyme Assay: A TTP Mosquito liquid handling instrument is used to place 125 nl of the appropriate concentration of inhibitor in 100% DMSO (for a dose response curve calculation) into each well of a 384-well plate. To this reaction components are added to a final volume of 12.5 µl: 0.1 ng/µl His-AKT (Full Length), (Invitrogen, Part # P2999, Lot #641228C). 160 uM ATP (Fluka, 02055) 1 mM DTT (Sigma, D0632) 1 mM MgCl2 (Sigma, M1028) 1 µM substrate peptide (sequence FITC-AHA-[…]-NH2), synthesized by Tufts Peptide Synthesis service. 100 mM HEPES pH 7.5 (Calbiochem, 391338)0.015% Brij-35 (Sigma, B4184)The reaction is incubated for 90 min at 25 C, and then stopped by the addition of 70 µl of Stop buffer (100 mM HEPES pH 7.5, 0.015% Brij-35, 10 mM EDTA (Sigma, E7889)).The plate is read on a Caliper LC 3000 in an Off-Chip mobility shift assay format, using the following parameters for a 12-sipper chip: screening pressure -2.3 psi, upstream voltage -500, and downstream voltage -3000.
[2] = target: Ribosomal protein S6 kinase beta-1 (Homo sapiens, UniProt P23443, T412E); assay: P70S6K Enzyme Assay: P70S6K inhibitor compounds are diluted and plated in 96 well plates. A reaction mixture including the following components is then added to the compound plate to initiate the enzyme reaction; P70S6K (3 nM, T412E mutant, Millipore) is mixed with 24 uM ATP in an assay buffer containing 100 mM Hepes (pH 7.5), 5 mM MgCl2, 1 mM DTT, 0.015% Brij and 1 uM of the substrate peptide FITC-AHA-[…]-OH (derived from the S6 ribosomal protein sequence, FITC=fluorescein isothiocyanate, AHA=6-aminohexanoic acid). The reaction is incubated for 90 min at 25° C., before the addition of 10 mM EDTA to stop the reaction. The proportion of substrate and product (phosphorylated) peptide is analysed on a Caliper Life Sciences Lab Chip 3000, using a pressure of -1.4 psi, and upstream and downstream voltages of -3000 and -700 respectively. Product peaks are resolved before substrate peaks on the resulting chromatograms.
Sequence of Ribosomal protein S6 kinase beta-1 (P23443 whole entry T412E): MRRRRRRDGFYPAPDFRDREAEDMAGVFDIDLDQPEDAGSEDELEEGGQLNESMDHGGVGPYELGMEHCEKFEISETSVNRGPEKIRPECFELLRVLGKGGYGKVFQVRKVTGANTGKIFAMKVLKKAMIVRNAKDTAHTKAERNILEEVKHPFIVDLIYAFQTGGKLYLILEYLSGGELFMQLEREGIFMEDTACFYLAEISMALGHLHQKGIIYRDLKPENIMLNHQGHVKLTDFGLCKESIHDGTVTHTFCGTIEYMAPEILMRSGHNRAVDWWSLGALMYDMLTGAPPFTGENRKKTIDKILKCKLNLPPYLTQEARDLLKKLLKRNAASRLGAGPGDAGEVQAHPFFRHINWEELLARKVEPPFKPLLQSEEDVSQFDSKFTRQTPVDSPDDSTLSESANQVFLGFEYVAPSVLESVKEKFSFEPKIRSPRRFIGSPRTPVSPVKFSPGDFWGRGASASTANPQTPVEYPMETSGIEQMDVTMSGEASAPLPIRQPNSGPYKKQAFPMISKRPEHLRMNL

Sequence of RAC-alpha serine/threonine-protein kinase (P31749 whole entry): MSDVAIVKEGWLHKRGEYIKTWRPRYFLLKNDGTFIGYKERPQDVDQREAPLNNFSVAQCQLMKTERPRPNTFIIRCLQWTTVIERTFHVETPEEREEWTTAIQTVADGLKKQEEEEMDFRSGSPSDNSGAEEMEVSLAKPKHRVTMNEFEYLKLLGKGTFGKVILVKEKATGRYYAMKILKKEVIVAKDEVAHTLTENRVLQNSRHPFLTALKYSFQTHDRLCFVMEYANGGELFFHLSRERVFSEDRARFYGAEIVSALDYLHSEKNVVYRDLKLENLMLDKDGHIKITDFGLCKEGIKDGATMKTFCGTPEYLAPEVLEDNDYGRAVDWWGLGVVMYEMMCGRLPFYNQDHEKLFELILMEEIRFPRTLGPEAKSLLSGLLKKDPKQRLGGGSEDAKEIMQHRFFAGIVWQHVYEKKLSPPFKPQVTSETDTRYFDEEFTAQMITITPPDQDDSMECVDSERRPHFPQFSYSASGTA

Structure (SMILES): CCc1c(N)ncnc1N1CCC(c2nc(-c3cccc(Cl)n3)cn2CCN2CCC2)CC1
- IC50 [1]: 780 nM
- IC50 [2]: 58 nM
